Experimental data published in PMC11904993, “Humanized Candida and NanoBiT Assays Expedite Discovery of Bdf1 Bromodomain Inhibitors With Antifungal Potential” (Advanced Science, 2025).
“And” between values parts separate entries of the source, which are not always exact repeats. Equal entries are not always repeated.

What was measured:
CgBdf1 BD1 = CgBdf1 BD1 (Candida glabrata, UniProt Q6FWV7); assay: HTRF assay, inhibition of H4ac4 peptide binding; parameters: species or system C. glabrata; conditions: for HTRF signal, normalized (Figure 5A data): 240 min
CgBdf1 BD1, sequence (Q6FWV7 entry or part of it): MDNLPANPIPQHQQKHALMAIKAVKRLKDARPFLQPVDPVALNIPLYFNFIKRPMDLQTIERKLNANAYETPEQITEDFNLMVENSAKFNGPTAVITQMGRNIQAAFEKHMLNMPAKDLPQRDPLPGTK

C. parapsilosis = assay: Growth in liquid media; type: cell-based; conditions: Fig 5C; for Growth (%): C. parapsilosis
Experimental: (§1) Strains were presented in Table S8 (Supporting Information). Cells from a single colony were diluted in 0.85% NaCl before being counted using a Neubauer chamber. They were diluted to a final concentration of 6500 cells mL^−1 per well for all clinical strains of C. albicans and C. glabrata; 65 000 cells mL^−1 per well for C. auris; 13 500 cells mL^−1 per well for C. parapsilosis; 3375 cells mL^−1 per well for C. krusei and 1687.5 cells mL^−1 per well for C. tropicalis, in a sterile 96‐well plate. Cells were then grown in SC medium with or without chemical compounds at 30 °C with regular shaking. The significance of growth defects was assessed using Holm‐Sidak method by GraphPad Prism 10.

CaBdf1 BD2 = target: T1, CaBdf1 BD2 (Candida albicans, UniProt Q5A4W8); assay: HTRF assay, inhibition of H4ac4 peptide binding; parameters: species or system C. albicans
T1 construct: BD1 (residues 193–327) and BD2 (residues 361–501) from CaBdf1 (Uniprot ID Q5A4W8); made in house; host or cells: E. coli BL21(DE3)
T1 sequence (Q5A4W8 361-501): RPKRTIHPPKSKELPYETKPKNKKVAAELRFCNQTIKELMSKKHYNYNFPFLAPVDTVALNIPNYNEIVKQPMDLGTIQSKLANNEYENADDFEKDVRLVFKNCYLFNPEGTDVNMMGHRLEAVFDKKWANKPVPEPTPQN

[1] = tested on: humanized C. albicans strains (both Bdf1 BDs replaced by Brd4 BDs); assay: Growth in liquid media, humanized C. albicans; type: cell-based; conditions: Candida albicans, read-out: EC50 (μM), C. albicans (hum)
Experimental: as §1

[2] = tested on: C. albicans expressing WT Bdf1; assay: Galleria fungal infection model, WT strain; type: in vivo, Galleria mellonella; parameters: key to survival event of one larva (1 = death 0 = no death): 1 = death; 0 = no death
Experimental: Galleria mellonella larvae were purchased from Decathlon (La Tronche, France). They were selected in the late larval stages weighing between 300 and 400 mg. Groups of 10 larvae were injected into the right or left last pro‐leg with 10 µl of either PBS, C. albicans suspensions or antifungal drug using an insulin syringe (BDUltra‐Fine 0.3 ml). C. albicans suspensions of the WT and humanized Bdf1 strains were adjusted to 10^6 cells larva^−1. Antifungal drugs (anidulafungin 5 mg kg^−1 or I‐BET726 66 or 44 mg kg^−1) were injected once 30 min before fungal infection. An infected control group received the C. albicans inoculum and the solvent of the drug. A non‐infected control group received only PBS. After inoculation, larvae were placed in Petri dishes and incubated in the dark at 37 °C. The larvae were monitored for 5 days, and survival outcome was determined. For experiments performed at the lower (44 mg kg^−1) dose of IBET‐726, the difference in protection against infection with humanized versus WT C. albicans strains was more evident using the survival data at 40 h rather than at 100 h post‐infection. Larvae were considered dead when no response was observed following touch. All experiments were performed at least 3 times independently. The significance of survival was assessed by a Log‐rank (Mantel‐Cox) test in GraphPad Prism 10.

CgBdf1 BD2 = CgBdf1 BD2 (Candida glabrata, UniProt Q6FWV7); assay: biochemical; type: binding, C. glabrata; conditions: 24 h, CgBD2, read-out: HTRF signal, normalized (Figure 5A data)
CgBdf1 BD2, sequence (Q6FWV7 entry or part of it): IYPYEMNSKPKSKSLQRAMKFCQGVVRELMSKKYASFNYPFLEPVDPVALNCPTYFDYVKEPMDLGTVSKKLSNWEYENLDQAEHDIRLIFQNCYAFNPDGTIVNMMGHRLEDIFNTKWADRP

In the case of `CC(=O)N1c2ccc(-c3ccc(C(=O)O)cc3)cc2C(Nc2ccc(Cl)cc2)CC1C` (stereo not drawn) [I-BET726], the “HTRF signal, normalized (Figure 5A data)” value (CgBdf1 BD1; 0.00524 µM) is reported as 100.65 and 90.91 and 103.41, the activity at 0.01311 µM (CgBdf1 BD1; 4 h, CgBD1, 13.11 nM, read-out: HTRF signal, normalized (Figure 5A data)) is reported as 104% and the activity at 0.03277 µM (CgBdf1 BD1; 4 h, CgBD1, 32.77 nM, read-out: HTRF signal, normalized (Figure 5A data)) is reported as 101%. The activity at 0.08192 µM (CgBdf1 BD1; 4 h, CgBD1, 81.92 nM, read-out: HTRF signal, normalized (Figure 5A data)) was 100%, the activity at 0.2048 µM (CgBdf1 BD1; 4 h, CgBD1, 204.8 nM, read-out: HTRF signal, normalized (Figure 5A data)) was 95.5% and the activity at 0.512 µM (CgBdf1 BD1; 4 h, CgBD1, 512 nM, read-out: HTRF signal, normalized (Figure 5A data)) was 85.3%. The activity at 3.2 µM (CgBdf1 BD1; 4 h, CgBD1, 3200 nM, read-out: HTRF signal, normalized (Figure 5A data)) was 40.5%, the activity at 8 µM (CgBdf1 BD1; 4 h, CgBD1, 8000 nM, read-out: HTRF signal, normalized (Figure 5A data)) was 10.1% and the activity at 0.00524 µM (CgBdf1 BD1; 4 h, read-out: HTRF signal, normalized (Figure 5A data)) was 103%. For the same molecule, the “HTRF signal, normalized (Figure 5A data)” value (CgBdf1 BD1; CgBD1, 2.10 nM, 0.0021 µM) was 106.06 and 99.07 and 83.43 and 98.63, the “HTRF signal, normalized (Figure 5A data)” value (CgBdf1 BD1; CgBD1, 13.11 nM, 0.01311 µM) was 90.77 and 95.51 and 103.15 and the “HTRF signal, normalized (Figure 5A data)” value (CgBdf1 BD1; CgBD1, 32.77 nM, 0.03277 µM) was 93.49 and 101.00 and 99.77. For the same molecule, the “HTRF signal, normalized (Figure 5A data)” value (CgBdf1 BD1; CgBD1, 204.8 nM, 0.2048 µM) was 107.13 and 88.05 and 91.40, the “HTRF signal, normalized (Figure 5A data)” value (CgBdf1 BD1; CgBD1, 512 nM, 0.512 µM) was 93.88 and 86.26 and 86.89 and the “HTRF signal, normalized (Figure 5A data)” value (CgBdf1 BD1; CgBD1, 1280 nM, 1.28 µM) was 77.62 and 66.65 and 70.52. The “HTRF signal, normalized (Figure 5A data)” value (CgBdf1 BD1; CgBD1, 3200 nM, 3.2 µM) was 48.37 and 45.98 and 46.29, the “HTRF signal, normalized (Figure 5A data)” value (CgBdf1 BD1; CgBD1, 8000 nM, 8 µM) was 13.26 and 14.56 and 18.60 and the IC50 (CgBdf1 BD1; Fig 5A, four replicates, read-out: IC50 (μM) BD1, C. gla. Bdf1) was 2.52 ± 0.14 µM. For the same molecule, the “Growth (%)” value (C. parapsilosis; 1.5625 µM) was 87% and 91% and 88%, the “Growth (%)” value (C. parapsilosis; 3.125 µM) was 79% and 80% and 78% and the “Growth (%)” value (C. parapsilosis; 25 µM) was 58% and 59% and 57%. It also gave an EC50 (C. parapsilosis; Lodderomyces parapsilosis) of ~30 µM, a remaining activity at 0.0021 µM (CaBdf1 BD2; CaBD2, 2.10 nM, read-out: HTRF signal, normalized (Figure 5A data)) of 108% and a remaining activity at 0.01311 µM (CaBdf1 BD2; CaBD2, 13.11 nM, read-out: HTRF signal, normalized (Figure 5A data)) of 98.4%. For the same molecule, the remaining activity at 0.03277 µM (CaBdf1 BD2; CaBD2, 32.77 nM, read-out: HTRF signal, normalized (Figure 5A data)) was 95.1%, the remaining activity at 0.2048 µM (CaBdf1 BD2; CaBD2, 204.8 nM, read-out: HTRF signal, normalized (Figure 5A data)) was 61.4% and the remaining activity at 0.512 µM (CaBdf1 BD2; CaBD2, 512 nM, read-out: HTRF signal, normalized (Figure 5A data)) was 25.6%. It also gave a remaining activity at 1.28 µM (CaBdf1 BD2; CaBD2, 1280 nM, read-out: HTRF signal, normalized (Figure 5A data)) of 11.4%, an IC50 (CaBdf1 BD2; Fig 5A, four replicates, read-out: IC50 (μM) BD2, C. alb. Bdf1) of 0.63 ± 0.05 µM and a remaining activity at 0.00524 µM (CaBdf1 BD2; read-out: HTRF signal, normalized (Figure 5A data)) of 102%. For the same molecule, the EC50 [1] was 0.035 ± 0.003 µM, the protection against infection ([2]; 44 mg kg^−1) was “not significant” and the “survival of infected larvae” value ([2]; 66 mg kg^−1, injected once 30 min before infection) was “≈ 100 h”. The “survival event of one larva (1 = death 0 = no death)” value ([2]; Figure 6B, Time 10 hours) was 1, the “survival event of one larva (1 = death 0 = no death)” value ([2]; Figure 6B, Time 35 hours) was 1 and the “survival event of one larva (1 = death 0 = no death)” value ([2]; Figure 6B, Time 50 hours) was 1. For the same molecule, the “survival event of one larva (1 = death 0 = no death)” value ([2]; Figure 6B, Time 73 hours) was 1, the “survival event of one larva (1 = death 0 = no death)” value ([2]; Figure 6D, Time 17 hours) was 1 and the “survival event of one larva (1 = death 0 = no death)” value ([2]; Figure 6D, Time 23 hours) was 1. The “survival event of one larva (1 = death 0 = no death)” value ([2]; Figure 6D, Time 41 hours) was 1 and 0, the activity at 0.0021 µM (CgBdf1 BD2; 2.10 nM) was 98.3% and the activity at 0.01311 µM (CgBdf1 BD2; 13.11 nM) was 91.8%.
